Assay results from ChEMBL document CHEMBL1137818, “Structure and spasmolytic activity of eucalyptanoic acid from Eucalyptus camaldulensis var. obtusa and synthesis of its active derivative from oleanolic acid” (2002).

Legend:
[1] = tested on: Jejunum; assay: Spasmolytic activity in rabbit jejunum assessed as inhibition of K+-induced muscle contraction at 1 mg/mL after 30 mins; format: functional; conditions: Oryctolagus cuniculus, 0.5 h
[2] = tested on: Jejunum; assay: Spasmolytic activity in rabbit jejunum assessed as inhibition of calcium influx-mediated spontaneous muscle contraction at 1 mg/mL after 30 mins; format: functional; conditions: Oryctolagus cuniculus, 0.5 h

| SMILES | inhibition at 1000 µg/mL [1] [%] | inhibition at 1000 µg/mL [2] [%] |
| --- | --- | --- |
| CC1(C)CC[C@]2(C(=O)O)CC[C@]3(C)C(=CC=C4[C@@]5(C)CC[C@H](O)C(C)(C)[C@@H]5CC[C@]43C)[C@H]2C1 [EUCALYPTANOIC ACID] | 31.1 | 58.2 |
| COC(=O)[C@]12CCC(C)(C)C[C@@H]1C1=CC[C@@H]3[C@@]4(C)CC[C@H](OC(C)=O)C(C)(C)[C@@H]4CC[C@@]3(C)[C@]1(C)CC2 [METHYL ACETYL OLEANOLATE] | 35.5 | 67.7 |
| COC(=O)[C@]12CCC(C)(C)C[C@@H]1C1=CC=C3[C@@]4(C)CC[C@H](OC(C)=O)C(C)(C)[C@@H]4CC[C@@]3(C)[C@]1(C)CC2 [METHYLACETYLEUCALYPTANOATE] | 85.9 | 95.3 |
